US10179767B2 (GENENTECH, INC., priority 2015, dated 2019)
pIC50: −log10 of the molar value.

Target: T1, hNav1.7 (Homo sapiens, UniProt Q15858)
T1 construct: expressed in transfected cells
Test: Tritiated sulfonamide binding to membranes from cells expressing hNav1.7 and the β1 subunit (Nav 1.7 ligand binding assay, competitive)
Details: competition with 100 pM [3H]compound, room temperature, 18 h
Experimental: Tritiated Sulfonamide Binding to Membranes Isolated from Cells that Heterologously Express hNav1.7 and the β1 Subunit
Preparation of membranes containing recombinantly expressed sodium channels: Frozen recombinant cell pellets were thawed on ice and diluted to 4 times the cell pellet weight with ice cold 50 mM Tris HCl, pH 7.4 buffer. The cell suspensions were homogenized on ice using a motorized glass dounce homogeniser. Homogenates were further diluted 8.4 times with ice cold 50 mM Tris HCl, pH 7.4 buffer and then centrifuged at 200×g at 4° C. for 15 min. The supernatants were collected and centrifuged at 10000×g at 4° C. for 50 min. The pellets were then re-suspended in 100 mM NaCl, 20 mM Tris HCl, pH 7.4 buffer containing 1% v/v protease inhibitors (Calbiochem) and re-homogenized on ice. The homogenized membranes were then processed through a syringe equipped with a 26 gauge needle. Protein concentrations were determined by Bradford Assay and the membranes were stored at −80° C.
Radioligand Binding Studies:
Saturation experiments. A competitive NaV1.7 inhibitor having a methyl group was tritiated. Three tritiums were incorporated in place of methyl hydrogens to generate [^3H]compound. Binding of this radioligand was preformed in 5 mL borosilicate glass test tubes at room temperature. Binding was initiated by adding membranes to increasing concentrations of [^3H]compound in 100 mM NaCl, 20 mM Tris HCl, pH 7.4 buffer containing 0.01% w/v bovine serum albumin (BSA) for 18 h. Non-specific binding was determined in the presence of 1 μM unlabelled compound. After 18 h, the reactants were filtered through GF/C glass fiber filters presoaked in 0.5% w/v polyethylene imine Filters were washed with 15 mL ice cold 100 mM NaCl, 20 mM Tris HCl, pH7.4 buffer containing 0.25% BSA to separate bound from free ligand. [^3H]compound bound to filters was quantified by liquid scintillation counting.
Competitive Binding Experiments:
Binding reactions were preformed in 96-well polypropylene plates at room temperature for 18 h. In 360 μL, membranes were incubated with 100 pM [^3H]compound and increasing concentrations of Test Compound. Non-specific binding was defined in the presence of 1 μM unlabelled compound. Reactions were transferred and filtered through 96-well glass fiber/C filter plates presoaked with 0.5% polyethylene imine. The filtered reactions were washed 5 times with 200 μL ice cold buffer containing 0.25% BSA. Bound radioactivity was determined by liquid scintillation counting. Data Analysis: For saturation experiments, non-specific binding was subtracted from total binding to provide specific binding and these values were recalculated in terms of pmol ligand bound per mg protein. Saturation curves were constructed and dissociation constants were calculated using the single site ligand binding model: Beq=(Bmax*X)/(X+Kd), where Beq is the amount of ligand bound at equilibrium, Bmax is the maximum receptor density, Kd is the dissociation constant for the ligand, and X is the free ligand concentration. For competition studies percent inhibition was determined and IC50 values were calculated using a 4 parameter logistic model (% inhibition=(A+((B−A)/(1+((x/C)⨣D)))) using XLfit, where A and B are the maximal and minimum inhibition respectively, C is the IC50 concentration and D is the (Hill) slope.

T1 sequence (Q15858 whole entry): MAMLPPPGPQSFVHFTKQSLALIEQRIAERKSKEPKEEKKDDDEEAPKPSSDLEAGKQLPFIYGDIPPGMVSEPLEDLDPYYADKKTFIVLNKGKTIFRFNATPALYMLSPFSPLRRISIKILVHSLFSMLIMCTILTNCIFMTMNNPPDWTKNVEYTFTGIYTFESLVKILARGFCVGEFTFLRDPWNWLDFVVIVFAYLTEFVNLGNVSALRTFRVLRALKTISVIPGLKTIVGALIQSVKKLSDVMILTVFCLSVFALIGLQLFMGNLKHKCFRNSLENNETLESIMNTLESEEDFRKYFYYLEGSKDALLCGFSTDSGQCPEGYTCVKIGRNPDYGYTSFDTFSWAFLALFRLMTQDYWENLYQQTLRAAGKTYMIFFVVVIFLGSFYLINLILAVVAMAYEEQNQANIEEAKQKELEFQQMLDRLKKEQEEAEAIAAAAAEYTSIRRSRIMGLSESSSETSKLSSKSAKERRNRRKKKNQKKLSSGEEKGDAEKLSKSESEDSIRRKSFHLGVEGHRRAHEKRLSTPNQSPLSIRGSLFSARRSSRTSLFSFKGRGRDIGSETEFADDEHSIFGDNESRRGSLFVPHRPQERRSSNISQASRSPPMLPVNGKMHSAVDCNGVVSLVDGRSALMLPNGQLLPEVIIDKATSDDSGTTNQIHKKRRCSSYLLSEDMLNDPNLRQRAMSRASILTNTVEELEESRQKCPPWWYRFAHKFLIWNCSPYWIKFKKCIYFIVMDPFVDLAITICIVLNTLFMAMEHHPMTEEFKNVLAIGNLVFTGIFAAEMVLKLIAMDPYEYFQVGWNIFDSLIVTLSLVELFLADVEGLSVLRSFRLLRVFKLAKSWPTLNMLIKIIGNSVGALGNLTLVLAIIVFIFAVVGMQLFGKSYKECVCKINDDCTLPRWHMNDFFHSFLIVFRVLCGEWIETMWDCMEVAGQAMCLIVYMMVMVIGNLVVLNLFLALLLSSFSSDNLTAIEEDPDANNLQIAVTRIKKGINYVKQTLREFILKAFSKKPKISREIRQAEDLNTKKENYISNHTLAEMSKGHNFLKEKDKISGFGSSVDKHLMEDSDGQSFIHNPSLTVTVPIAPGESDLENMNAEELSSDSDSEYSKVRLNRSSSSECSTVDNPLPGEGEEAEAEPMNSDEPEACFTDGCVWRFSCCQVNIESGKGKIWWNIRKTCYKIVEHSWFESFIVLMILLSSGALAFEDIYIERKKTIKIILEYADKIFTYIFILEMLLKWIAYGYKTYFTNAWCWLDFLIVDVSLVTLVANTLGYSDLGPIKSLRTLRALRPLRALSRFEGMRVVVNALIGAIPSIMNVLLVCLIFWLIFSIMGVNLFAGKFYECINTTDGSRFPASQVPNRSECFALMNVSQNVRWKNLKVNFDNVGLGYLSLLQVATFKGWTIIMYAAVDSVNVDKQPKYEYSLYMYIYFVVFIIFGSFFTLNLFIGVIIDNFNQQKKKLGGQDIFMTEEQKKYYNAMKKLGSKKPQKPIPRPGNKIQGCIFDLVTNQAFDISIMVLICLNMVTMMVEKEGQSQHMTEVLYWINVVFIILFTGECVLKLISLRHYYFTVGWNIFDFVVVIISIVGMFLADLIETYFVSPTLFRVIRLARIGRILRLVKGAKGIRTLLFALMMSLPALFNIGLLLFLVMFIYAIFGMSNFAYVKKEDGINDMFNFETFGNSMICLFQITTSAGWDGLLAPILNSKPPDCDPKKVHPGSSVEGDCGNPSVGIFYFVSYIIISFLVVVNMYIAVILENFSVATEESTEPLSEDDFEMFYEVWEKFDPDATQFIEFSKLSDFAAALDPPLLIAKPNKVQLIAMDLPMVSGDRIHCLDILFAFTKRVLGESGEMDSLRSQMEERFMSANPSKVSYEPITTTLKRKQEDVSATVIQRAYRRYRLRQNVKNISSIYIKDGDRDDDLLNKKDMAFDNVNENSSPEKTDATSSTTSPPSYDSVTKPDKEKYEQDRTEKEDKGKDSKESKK
T1 sequence (Q07699 19-218 partner): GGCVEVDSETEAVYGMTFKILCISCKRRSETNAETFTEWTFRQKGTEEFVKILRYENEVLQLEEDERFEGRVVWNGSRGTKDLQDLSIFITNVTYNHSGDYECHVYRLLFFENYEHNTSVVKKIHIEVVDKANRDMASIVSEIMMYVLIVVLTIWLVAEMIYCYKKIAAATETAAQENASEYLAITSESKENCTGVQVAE

With `CS(=O)(=O)NC(=O)c1cc(C2CC2)c(OCC2CCN(Cc3cc(Cl)cc(C(F)(F)F)c3C#N)CC2)cc1F` [Example 4, 4-((1-(5-Chloro-2-cyano-3-(trifluoromethyl)benzyl)piperidin-4-yl)methoxy)-5-cyclopropyl-2-fluoro-N-(methylsulfonyl)benzamide] as the compound, how does the pIC50 read?
The pIC50 was 8.18.

With `CS(=O)(=O)NC(=O)c1cc(C2CC2)c(OCC2CCN(Cc3cc(Cl)cc(OC4CC4)c3)CC2)cc1F` [Example 28, 4-((1-(3-Chloro-5-cyclopropoxybenzyl)piperidin-4-yl)methoxy)-5-cyclopropyl-2-fluoro-N-(methylsulfonyl)benzamide] as the compound, how does the pIC50 read?
The pIC50 was 8.22.

With `COC1(COc2cc(F)c(C(=O)NS(=O)(=O)C3CC3)cc2C2CC2)CCN(Cc2cc(Cl)cc(Cl)c2)CC1` [Example 9, 5-Cyclopropyl-N-(cyclopropylsulfonyl)-4-((1-(3,5-dichlorobenzyl)-4-methoxypiperidin-4-yl)methoxy)-2-fluorobenzamide] as the compound, how does the pIC50 read?
Its pIC50 is 8.24.

How did the pIC50 turn out when `C[C@H](c1ccc(F)c(Cl)c1)N1CCC(F)(COc2cc(F)c(C(=O)NS(C)(=O)=O)cc2C2CC2)CC1` (single isomer, unassigned) [Example 27] was run?
The pIC50 was 8.07.

How did the pIC50 turn out when `CC(c1cc(Cl)cc(Cl)c1)N1CCC(COc2ccc(C(=O)NS(C)(=O)=O)cc2C2CC2)CC1` (centres unmarked) [Example 61, 3-cyclopropyl-4-((1-(1-(3,5-dichlorophenyl)ethyl)piperidin-4-yl)methoxy)-N-(methylsulfonyl)-benzamide] was run?
The pIC50 was 8.00.

How did the pIC50 turn out when `CC(c1cc(Cl)cc(C2CC2)n1)N1CCC(COc2cc(F)c(C(=O)NS(=O)(=O)C3CC3)cc2C2CC2)CC1` (centres unmarked) [Example 47, 4-((1-(1-(4-chloro-6-cyclopropylpyridin-2-yl)ethyl)piperidin-4-yl)methoxy)-5-cyclopropyl-N-(cyclopropylsulfonyl)-2-fluorobenzamide] was run?
The pIC50 was 8.00.

`COC1(COc2cc(F)c(C(=O)NS(C)(=O)=O)cc2C2CC2)CCN(Cc2cc(C(F)(F)F)cc(Cl)c2F)CC1` [Example 7, 4-((1-(3-Chloro-2-fluoro-5-(trifluoromethyl)benzyl)-4-methoxypiperidin-4-yl)methoxy)-5-cyclopropyl-2-fluoro-N-(methylsulfonyl)benzamide] was tested. Which pIC50 did it give?
Its pIC50 is 8.10.

`C[C@H](c1ccc(Cl)c(F)c1)N1CCC(COc2cc(F)c(C(=O)NS(C)(=O)=O)cc2C2CC2)CC1` (single isomer, unassigned) [Example 39] was tested. Which pIC50 did it give?
Its pIC50 is 8.34.

`CC(C)Oc1ncc(CN2CCC(F)(COc3cc(F)c(C(=O)NS(=O)(=O)C4CC4)cc3C3CC3)CC2)cc1Cl` [Example 56, 4-((1-((5-chloro-6-isopropoxypyridin-3-yl)methyl)-4-fluoropiperidin-4-yl)methoxy)-5-cyclopropyl-N-(cyclopropylsulfonyl)-2-fluorobenzamide] was tested. Which pIC50 did it give?
Its pIC50 is 8.17.

`C[C@@H](c1ccc(F)c(Cl)c1)N1CCC(COc2cc(F)c(C(=O)NS(C)(=O)=O)cc2C2CC2)CC1` (single isomer, unassigned) [Example 36] was tested. Which pIC50 did it give?
The pIC50 was 8.22.

How did the pIC50 turn out when `C[C@H](c1ccc(Cl)c(Cl)c1)N1CCC(F)(COc2cc(F)c(C(=O)NS(C)(=O)=O)cc2C2CC2)CC1` (single isomer, unassigned) [Example 23] was run?
The pIC50 was 8.19.

With `CC(C)(C#N)[C@H](c1cc(Cl)cc(Cl)c1)N1CCC(COc2cc(F)c(C(=O)NS(C)(=O)=O)cc2C2CC2)CC1` (single isomer, unassigned) [Example 11] as the compound, how does the pIC50 read?
Its pIC50 is 8.38.

How did the pIC50 turn out when `CS(=O)(=O)NC(=O)c1cc(C2CC2)c(OCC2(O)CCN(Cc3cc(Cl)cc(Cl)c3)CC2)cc1F` [Example 6, 5-Cyclopropyl-4-((1-(3,5-dichlorobenzyl)-4-hydroxypiperidin-4-yl)methoxy)-2-fluoro-N-(methylsulfonyl)benzamide] was run?
Its pIC50 is 8.00.

`CCS(=O)(=O)NC(=O)c1cc(C2CC2)c(OCC2CCN([C@@H](C)c3cc(Cl)cc(Cl)c3F)CC2)cc1F` (single isomer, unassigned) [Example 32] was tested. Which pIC50 did it give?
Its pIC50 is 8.29.

With `C[C@H](c1cc(Cl)c(F)c(Cl)c1)N1CCC(COc2cc(F)c(C(=O)NS(C)(=O)=O)cc2C2CC2)CC1` (single isomer, unassigned) [Example 37] as the compound, how does the pIC50 read?
The pIC50 was 8.52.

How did the pIC50 turn out when `CS(=O)(=O)NC(=O)c1cc(C2CC2)c(OCC2CCN(Cc3cc(Cl)cc(C4CC4)n3)CC2)cc1F` [Example 49, 4-((1-((4-chloro-6-cyclopropylpyridin-2-yl)methyl)piperidin-4-yl)methoxy)-5-cyclopropyl-2-fluoro-N-(methylsulfonyl)benzamide] was run?
Its pIC50 is 7.96.

How did the pIC50 turn out when `COc1c(Cl)cc(Cl)cc1[C@@H](C)N1CCC(COc2cc(F)c(C(=O)NS(C)(=O)=O)cc2C2CC2)CC1` (single isomer, unassigned) [Example 15] was run?
The pIC50 was 8.29.

With `CC(c1cc(Cl)cc(C2CC2)n1)N1CCC(COc2cc(F)c(C(=O)NS(C)(=O)=O)cc2C2CC2)CC1` (centres unmarked) [Example 46, 4-((1-(1-(4-chloro-6-cyclopropylpyridin-2-yl)ethyl)piperidin-4-yl)methoxy)-5-cyclopropyl-2-fluoro-N-(methylsulfonyl)benzamide] as the compound, how does the pIC50 read?
Its pIC50 is 7.92.

How did the pIC50 turn out when `C[C@@H](c1cc(Cl)cc(Cl)c1)N1CCC(F)(COc2cc(F)c(C(=O)NS(=O)(=O)N3CCC3)cc2C2CC2)CC1` [Example 58, (S)—N-(azetidin-1-ylsulfonyl)-5-cyclopropyl-4-((1-(1-(3,5-dichlorophenyl)ethyl)-4-fluoropiperidin-4-yl)methoxy)-2-fluorobenzamide] was run?
Its pIC50 is 8.25.

How did the pIC50 turn out when `C[C@@H](c1cc(Cl)c(F)c(Cl)c1)N1CCC(COc2cc(F)c(C(=O)NS(C)(=O)=O)cc2C2CC2)CC1` (single isomer, unassigned) [Example 38] was run?
The pIC50 was 8.51.

With `O=C(NS(=O)(=O)N1CCC1)c1cc(C2CC2)c(O[C@H]2CCCN(Cc3ccc(F)cc3Cl)C2)cc1F` [Example 41, (S)—N-(azetidin-1-ylsulfonyl)-4-((1-(2-chloro-4-fluorobenzyl)piperidin-3-yl)oxy)-5-cyclopropyl-2-fluorobenzamide] as the compound, how does the pIC50 read?
Its pIC50 is 6.85.

How did the pIC50 turn out when `CS(=O)(=O)NC(=O)c1cc(C2CC2)c(OCC2(F)CCN(Cc3ccc(F)c(Cl)c3)CC2)cc1F` [Example 31, 4-((1-(3-Chloro-4-fluorobenzyl)-4-fluoropiperidin-4-yl)methoxy)-5-cyclopropyl-2-fluoro-N-(methylsulfonyl)benzamide] was run?
The pIC50 was 8.28.

`CC(c1ncc(Cl)cc1Cl)N1CCC(COc2cc(F)c(C(=O)NS(C)(=O)=O)cc2C2CC2)CC1` (centres unmarked) [Example 44, 5-cyclopropyl-4-((1-(1-(3,5-dichloropyridin-2-yl)ethyl)piperidin-4-yl)methoxy)-2-fluoro-N-(methylsulfonyl)benzamide] was tested. Which pIC50 did it give?
Its pIC50 is 7.74.

With `CC(C)(C#N)[C@@H](c1cc(Cl)cc(Cl)c1)N1CCC(COc2cc(F)c(C(=O)NS(C)(=O)=O)cc2C2CC2)CC1` (single isomer, unassigned) [Example 12] as the compound, how does the pIC50 read?
Its pIC50 is 8.41.

`COCC(c1cc(Cl)cc(Cl)c1F)N1CCC(COc2cc(F)c(C(=O)NS(C)(=O)=O)cc2C2CC2)CC1` (centres unmarked) [Example 21, 5-cyclopropyl-4-((1-(1-(3,5-dichloro-2-fluorophenyl)-2-methoxyethyl)piperidin-4-yl)methoxy)-2-fluoro-N-(methylsulfonyl)benzamide] was tested. Which pIC50 did it give?
The pIC50 was 8.36.

How did the pIC50 turn out when `CC(C)Oc1ncc(CN2CCC(F)(COc3cc(F)c(C(=O)NS(C)(=O)=O)cc3C3CC3)CC2)cc1Cl` [Example 55, 4-((1-((5-chloro-6-isopropoxypyridin-3-yl)methyl)-4-fluoropiperidin-4-yl)methoxy)-5-cyclopropyl-2-fluoro-N-(methylsulfonyl)benzamide] was run?
The pIC50 was 8.25.

With `CS(=O)(=O)NC(=O)c1cc(C2CC2)c(OCC2CCN(Cc3cc(C(F)(F)F)cc(Cl)c3C#N)CC2)cc1F` [Example 3, 4-((1-(3-chloro-2-cyano-5-(trifluoromethyl)benzyl)piperidin-4-yl)methoxy)-5-cyclopropyl-2-fluoro-N-(methylsulfonyl)benzamide] as the compound, how does the pIC50 read?
The pIC50 was 8.35.

`CS(=O)(=O)NC(=O)c1cc(C2CC2)c(OCC2(F)CCN(Cc3ccc(F)cc3Cl)CC2)cc1F` [Example 29, 4-((1-(2-Chloro-4-fluorobenzyl)-4-fluoropiperidin-4-yl)methoxy)-5-cyclopropyl-2-fluoro-N-(methylsulfonyl)benzamide] was tested. Which pIC50 did it give?
The pIC50 was 8.38.

With `CS(=O)(=O)NC(=O)c1cc(C2CC2)c(OCC2CCN([C@H](c3cc(Cl)cc(Cl)c3)C3COC3)CC2)cc1F` (single isomer, unassigned) [Example 34] as the compound, how does the pIC50 read?
The pIC50 was 8.00.
